The test system of data set [1] is human breast cancer cells (Bacp-37). As to the kind of experiment: Activities against transplanted human breast cancer tumor in mice. The following applies: Bacp-37 xenograft, 20 days after administration; for Inhibition rate (%): tumor weight vs control group. Type of data set: in vivo, Balb/c-nu/nu nude mice. The protocol:
Balb/c-nu/nu nude mice (5 to 7 weeks old, 16-20 g) were randomly grouped. The mice were inoculated subcutaneously with 0.1 ml of a cell suspension containing 10^6 human breast cancer cells (Bacp-37). Upon the tumor volume having reached 50 mm^3, the mice were intravenously injected with a dose of a conjugate or a free drug. Twenty days after the administration, the animals were sacrificed and their body weight and tumor weight were measured.

For data set [2], the system named is human liver cancer cells (HepG2). Kind of data set: Activities against transplanted human liver cancer tumor in mice. The following applies: HepG2 xenograft, 20 days after administration; for Inhibition rate (%): tumor weight vs control group. Type of data set: in vivo, Balb/c-nu/nu nude mice. On the procedure:
Balb/c-nu/nu nude mice (5 to 7 weeks old, 16-20 g) were randomly grouped. The mice were inoculated subcutaneously with 0.1 ml of a cell suspension containing 10^6 human liver cancer cells (HepG2). Upon the tumor volume having reached 50 mm^3, the mice were intravenously injected with a dose of a conjugate or a free drug. Twenty days after the administration, the animals were sacrificed and their body weight and tumor weight were measured. Tumor inhibition rate was calculated according to the following equation: […]

Setting [3] is: single i.v. dose 100 mg/kg (as free drug).

Turning to `CC(=O)O[C@@]12CO[C@@H]1C[C@H](O)[C@@]1(C)C(=O)[C@H](O)C3=C(C)[C@@H](OC(=O)[C@H](O)[C@@H](NC(=O)OC(C)(C)C)c4ccccc4)C[C@@](O)([C@@H](OC(=O)c4ccccc4)[C@H]21)C3(C)C` [Docetaxel], in data set [1] (i.v. 100 mg/kg), the “Change of body weight (g)” value is reported as “+6.29 g” and the “Weight of tumor” value was found to be 0.35 g. Also, the “Number of animals (final/initial)” value in data set [1] (single i.v. dose 100 mg/kg) is on record as 6/6. In data set [2] (i.v. 100 mg/kg (as free drug)), the “Change of body weight (g)” value is recorded as “+6.92 g”, the “Weight of tumor” value is listed as 0.56 g and the “Inhibition rate (%)” value was found to be 55.56%. Also, the “Number of animals (final/initial)” value in data set [2] (setting [3]) is reported as 6/6.
With `Nc1ccn([C@@H]2O[C@H](CO)[C@@H](O)C2(F)F)c(=O)n1` [Gemcitabine], in data set [1] (i.v. 5 mg/kg), the “Change of body weight (g)” value is given as “+5.08 g”, the “Weight of tumor” value is 0.51 g and the “Inhibition rate (%)” value was 63.08%. Besides, the “Number of animals (final/initial)” value in data set [1] (single i.v. dose 5 mg/kg) is 5/6. Besides, in data set [2] (i.v. 5 mg/kg (as free drug)), the “Change of body weight (g)” value was “+4.77 g”, the “Weight of tumor” value came to 0.45 g and the “Inhibition rate (%)” value was 64.28%. Further, the “Number of animals (final/initial)” value in data set [2] (single i.v. dose 5 mg/kg (as free drug)) was 4/6.
Turning to `CC(=O)O[C@H]1C(=O)[C@@]2(C)[C@H]([C@H](OC(=O)c3ccccc3)[C@]3(O)C[C@H](OC(=O)[C@H](O)[C@@H](NC(=O)c4ccccc4)c4ccccc4)C(C)=C1C3(C)C)[C@]1(OC(C)=O)CO[C@@H]1C[C@@H]2O` [Paclitaxel], the “Change of body weight (g)” value in data set [1] (i.v. 100 mg/kg) is listed as “+5.91 g”; in data set [2] (i.v. 100 mg/kg (as free drug)), “+5.38 g”. Also, the “Weight of tumor” value was 0.48 g in data set [1] (i.v. 100 mg/kg) and 0.54 g in data set [2] (i.v. 100 mg/kg (as free drug)). Also, the results for the “Inhibition rate (%)” value in data set [1] (i.v. 100 mg/kg) and in data set [2] (i.v. 100 mg/kg (as free drug)) were 65.22% and 57.14%, respectively. Moreover, the “Number of animals (final/initial)” value in data set [1] (single i.v. dose 100 mg/kg) and in data set [2] (setting [3]) was 5/6 in each case.
Turning to “[N-acetyl-poly-(L)-glutamic acid]-[2′-O-(L-alanyl)-docetaxel] conjugate [Compound I12]”, in data set [1] (i.v. 100 mg/kg), the “Weight of tumor” value is 0.34 g and the “Inhibition rate (%)” value came to 75.36%.
Take “[N-acetyl-poly-(L)-glutamic acid]-[2′-O-(L-alanyl)-paclitaxel] conjugate [Compound I10]”: in data set [1] (i.v. 100 mg/kg), the “Weight of tumor” value was determined as 0.29 g and the “Inhibition rate (%)” value amounted to 78.99%.
The corresponding values for “[N-acetyl-poly-(L)-glutamic acid]-[2′-O-(L-isoleucyl)-docetaxel] conjugate [Compound I18]” are 0.73 g and 47.10%.
Take “[N-acetyl-poly-(L)-glutamic acid]-[2′-O-(L-valyl)-paclitaxel] conjugate [Compound I22]”: in data set [1] (i.v. 100 mg/kg), the “Weight of tumor” value was 0.41 g and the “Inhibition rate (%)” value was 70.29%.
For “[N-acetyl-poly-(L)-glutamic acid]-[2′-O-(glycyl)-docetaxel] conjugate [Compound I6]” the same measures were 0.47 g and 65.94%.
The corresponding values for “[N-acetyl-poly-(L)-glutamic acid]-[2′-O-(glycyl)-paclitaxel] conjugate [Compound I4]” are 0.42 g and 69.56%.
Turning to “[N-acetyl-poly-(L)-glutamic acid]-[5′-O-(L-alanyl)-gemcitabine] conjugate [Compound I8]”, in data set [1] (i.v. 5 mg/kg), the “Weight of tumor” value came out at 0.39 g and the “Inhibition rate (%)” value is listed as 71.73%.
With “[poly-(L)-glutamic acid]-[5′-O-(glycyl)-gemcitabine] conjugate [Compound I1]”, in data set [1] (i.v. 5 mg/kg), the “Weight of tumor” value worked out at 0.46 g and the “Inhibition rate (%)” value turned out to be 71.01%.

For the origin of these results see patent US20120041167A1, “POLY(GLUTAMIC ACID)-DRUG CONJUGATE WITH AN AMINO ACID AS A LINKER” (Institute of Pharmacology and Toxicology Academy of …, priority 2006, published 2012).
